This data set in a line: pKa values for the secondary alcohol OH group.

In the case of `OC[C@H]1O[C@@H]2O[C@H]3[C@H](O)[C@@H](O)[C@@H](O[C@H]4[C@H](O)[C@@H](O)[C@@H](O[C@H]5[C@H](O)[C@@H](O)[C@@H](O[C@H]6[C@H](O)[C@@H](O)[C@@H](O[C@H]7[C@H](O)[C@@H](O)[C@@H](O[C@H]1[C@H](O)[C@H]2O)O[C@@H]7CO)O[C@@H]6CO)O[C@@H]5CO)O[C@@H]4CO)O[C@@H]3CO` [α-CD], the “pKa value for the secondary alcohol OH group” value is 12.05.

On to `OC[C@H]1O[C@H](O[C@H]2[C@H](O)[C@@H](O)C(O)O[C@@H]2CO)[C@H](O)[C@@H](O)[C@@H]1O` (mixture of isomers) [maltose], for which the pKa turned out to be 11.9.

On to `OC[C@@H](O)[C@@H](O)[C@H](O)[C@@H](O)CO` [sorbitol], for which the pKa is 13.6.

The values are drawn from patent US20150136603A1, “WATER-SOLUBLE, UV-ABSORBING AND/OR FLOURESCENT COMPONENTS WITH VERY HIGH ISOELECTRIC POINTS” (TEXAS A & M UNIVERSITY SYSTEM, priority 2004, published 2015).
